Laboratory results reported in ChEMBL document CHEMBL4152230, “Discovery of N-{3-[(ethanimidoylamino)methyl]benzyl}-l-prolinamide dihydrochloride: A new potent and selective inhibitor of the inducible nitric oxide synthase as a promising agent for the therapy of malignant glioma” (Eur J Med Chem, 2018).
pIC50: −log10 of the molar value. The source made the active and inactive calls. The calls are words filed in the database; no cut-off is given here.

Assays:
[1] = Selectivity index, ratio of IC50 for recombinant bovine eNOS to IC50 for recombinant mouse iNOS
Nitric oxide synthase 3 = biological target: T1, Nitric oxide synthase 3 (Bos taurus, UniProt P29473); assay: Inhibition of recombinant bovine eNOS using [3H]L-arginine as substrate preincubated for 15 mins followed by NADPH addition measured after 20 mins in presence of FMN/FAD by liquid scintillation counting method
T1 sequence (P29473 whole entry): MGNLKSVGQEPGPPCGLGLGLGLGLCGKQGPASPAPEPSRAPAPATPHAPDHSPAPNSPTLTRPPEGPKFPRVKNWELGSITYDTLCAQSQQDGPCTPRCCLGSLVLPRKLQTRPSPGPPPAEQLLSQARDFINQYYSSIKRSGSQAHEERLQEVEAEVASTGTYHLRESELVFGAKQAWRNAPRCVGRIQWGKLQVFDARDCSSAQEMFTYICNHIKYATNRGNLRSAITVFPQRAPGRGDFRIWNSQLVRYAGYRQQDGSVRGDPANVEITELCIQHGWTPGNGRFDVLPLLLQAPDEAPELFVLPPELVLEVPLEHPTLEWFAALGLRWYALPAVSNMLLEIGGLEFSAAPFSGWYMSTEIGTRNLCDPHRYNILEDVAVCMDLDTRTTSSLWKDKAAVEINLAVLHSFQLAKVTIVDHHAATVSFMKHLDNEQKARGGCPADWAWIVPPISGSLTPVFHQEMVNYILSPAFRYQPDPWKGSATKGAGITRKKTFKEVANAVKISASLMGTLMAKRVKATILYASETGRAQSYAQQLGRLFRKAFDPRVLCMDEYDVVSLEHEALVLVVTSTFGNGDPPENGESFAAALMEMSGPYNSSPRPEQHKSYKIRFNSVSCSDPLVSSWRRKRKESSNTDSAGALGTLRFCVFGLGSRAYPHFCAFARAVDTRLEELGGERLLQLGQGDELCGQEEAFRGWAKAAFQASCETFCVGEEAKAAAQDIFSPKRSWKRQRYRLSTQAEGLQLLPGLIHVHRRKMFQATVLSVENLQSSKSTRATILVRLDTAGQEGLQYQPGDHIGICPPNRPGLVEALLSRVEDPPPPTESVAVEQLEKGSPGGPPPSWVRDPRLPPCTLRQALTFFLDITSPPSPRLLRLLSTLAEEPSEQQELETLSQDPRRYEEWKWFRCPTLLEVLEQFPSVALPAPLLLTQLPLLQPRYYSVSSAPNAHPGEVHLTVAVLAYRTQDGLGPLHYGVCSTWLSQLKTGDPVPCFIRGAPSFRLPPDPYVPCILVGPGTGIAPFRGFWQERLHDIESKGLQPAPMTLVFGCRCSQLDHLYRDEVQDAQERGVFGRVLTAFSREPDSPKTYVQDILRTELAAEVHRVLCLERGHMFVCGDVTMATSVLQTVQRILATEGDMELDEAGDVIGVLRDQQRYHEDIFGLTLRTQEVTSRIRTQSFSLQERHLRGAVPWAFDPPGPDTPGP

[2] = biological target: T2, Nitric oxide synthase, inducible (Mus musculus, UniProt P29477); assay: Inhibition of recombinant mouse iNOS using [3H]L-arginine as substrate preincubated for 15 mins followed by NADPH addition measured after 20 mins in presence of FMN/FAD by liquid scintillation counting method
T2 sequence (P29477 whole entry): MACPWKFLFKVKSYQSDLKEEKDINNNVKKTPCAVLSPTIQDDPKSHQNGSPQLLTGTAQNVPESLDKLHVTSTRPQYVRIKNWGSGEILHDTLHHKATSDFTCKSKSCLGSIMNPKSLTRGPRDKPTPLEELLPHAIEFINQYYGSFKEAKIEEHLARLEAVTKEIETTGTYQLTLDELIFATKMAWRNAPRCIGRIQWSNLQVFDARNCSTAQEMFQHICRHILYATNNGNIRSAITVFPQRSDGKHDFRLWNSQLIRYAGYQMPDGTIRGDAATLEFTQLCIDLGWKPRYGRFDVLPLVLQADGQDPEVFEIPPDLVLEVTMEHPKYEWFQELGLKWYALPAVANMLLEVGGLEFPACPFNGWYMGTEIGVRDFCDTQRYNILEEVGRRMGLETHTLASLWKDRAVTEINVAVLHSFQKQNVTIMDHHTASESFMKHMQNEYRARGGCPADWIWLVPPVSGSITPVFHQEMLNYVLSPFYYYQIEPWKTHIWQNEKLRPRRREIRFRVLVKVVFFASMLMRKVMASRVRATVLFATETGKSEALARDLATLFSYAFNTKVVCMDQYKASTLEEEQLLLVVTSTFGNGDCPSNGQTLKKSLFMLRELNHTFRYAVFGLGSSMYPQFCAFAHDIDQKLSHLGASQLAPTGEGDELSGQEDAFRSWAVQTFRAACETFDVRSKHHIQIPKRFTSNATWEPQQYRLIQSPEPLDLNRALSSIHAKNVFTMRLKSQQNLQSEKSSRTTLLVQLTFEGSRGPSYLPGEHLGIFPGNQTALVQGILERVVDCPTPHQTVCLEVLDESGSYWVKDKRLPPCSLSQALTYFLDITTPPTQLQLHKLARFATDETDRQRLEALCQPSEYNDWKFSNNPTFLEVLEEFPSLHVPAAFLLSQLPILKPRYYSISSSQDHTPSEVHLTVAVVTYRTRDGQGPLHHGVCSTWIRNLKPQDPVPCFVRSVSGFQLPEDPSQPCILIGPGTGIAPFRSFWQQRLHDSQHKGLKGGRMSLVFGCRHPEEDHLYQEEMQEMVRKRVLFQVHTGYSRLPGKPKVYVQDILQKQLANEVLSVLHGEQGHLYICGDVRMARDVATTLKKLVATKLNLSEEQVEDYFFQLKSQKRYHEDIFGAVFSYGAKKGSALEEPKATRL

[3] = biological target: Nitric oxide synthase, inducible (Rattus norvegicus) (UniProt Q06518); assay: Ex vivo inhibition of iNOS in mesenteric vascular arteries isolated from LPS-induced septic shock Sprague-Dawley rat model assessed as increase in noradrenaline-mediated vasoconstriction by measuring changes in perfusion pressure at 100 uM preincubated for 30 mins followed by noradrenaline treatment
Sequence of Nitric oxide synthase, inducible (Rattus norvegicus) (Q06518 whole entry, the tested form may be a part): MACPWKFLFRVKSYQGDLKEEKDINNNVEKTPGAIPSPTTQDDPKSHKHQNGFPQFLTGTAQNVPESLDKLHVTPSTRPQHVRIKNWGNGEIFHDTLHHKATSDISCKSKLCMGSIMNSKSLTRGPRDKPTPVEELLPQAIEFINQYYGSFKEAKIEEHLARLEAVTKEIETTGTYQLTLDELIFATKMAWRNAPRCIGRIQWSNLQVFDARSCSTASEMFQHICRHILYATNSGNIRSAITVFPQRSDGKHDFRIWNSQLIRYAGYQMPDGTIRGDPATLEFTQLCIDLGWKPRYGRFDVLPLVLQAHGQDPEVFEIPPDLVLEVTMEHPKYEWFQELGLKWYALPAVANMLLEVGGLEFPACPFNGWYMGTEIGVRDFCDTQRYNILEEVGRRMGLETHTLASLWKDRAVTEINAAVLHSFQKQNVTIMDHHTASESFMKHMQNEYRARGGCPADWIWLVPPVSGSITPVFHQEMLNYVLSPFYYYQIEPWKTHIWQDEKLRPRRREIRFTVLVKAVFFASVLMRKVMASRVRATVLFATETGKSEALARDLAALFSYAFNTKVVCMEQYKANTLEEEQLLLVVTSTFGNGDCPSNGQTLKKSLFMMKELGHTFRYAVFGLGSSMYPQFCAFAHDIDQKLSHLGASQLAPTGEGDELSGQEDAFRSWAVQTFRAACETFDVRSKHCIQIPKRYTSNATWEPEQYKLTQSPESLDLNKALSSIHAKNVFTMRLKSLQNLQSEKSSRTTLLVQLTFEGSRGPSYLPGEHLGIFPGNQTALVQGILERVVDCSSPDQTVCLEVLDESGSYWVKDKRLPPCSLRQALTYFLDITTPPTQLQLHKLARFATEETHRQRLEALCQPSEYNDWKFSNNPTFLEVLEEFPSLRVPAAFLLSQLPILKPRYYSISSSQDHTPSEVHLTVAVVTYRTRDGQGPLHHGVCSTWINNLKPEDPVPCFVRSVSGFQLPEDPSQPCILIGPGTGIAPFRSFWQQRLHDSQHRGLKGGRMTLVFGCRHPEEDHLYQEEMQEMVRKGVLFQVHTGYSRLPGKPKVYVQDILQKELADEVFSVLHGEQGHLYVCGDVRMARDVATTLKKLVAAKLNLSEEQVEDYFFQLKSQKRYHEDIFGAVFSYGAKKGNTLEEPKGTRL

C6 [4] = assay: Cytotoxicity against rat C6 cells assessed as cell proliferation at 0.75 mM after 72 hrs by MTT assay relative to control; format: functional; settings: C6, 72 h, read-out: Activity
C6 [5] = assay: Cytotoxicity against rat C6 cells assessed as inhibition of cell proliferation after 24 to 48 hrs by MTT assay; format: functional, cell-based
[6] = Cytotoxicity against rat CTX/TNA2 cells assessed as inhibition of cell proliferation up to 72 hrs by MTT assay; format: cell-based
[7] = Cytotoxicity against rat CTX/TNA2 cells assessed as inhibition of cell proliferation at 1.5 mM after 24 hrs by MTT assay relative to control; format: cell-based
C6 [8] = assay: Cytotoxicity against rat C6 cells assessed as cell proliferation at 1 mM after 24 hrs by MTT assay relative to control; format: functional; settings: C6, 24 h, read-out: Activity
C6 [9] = assay: Cytotoxicity against rat C6 cells assessed as cell proliferation at 2 mM after 24 hrs by MTT assay relative to control; format: functional; settings: C6, 24 h, read-out: Activity
C6 [10] = assay: Cytotoxicity against rat C6 cells assessed as cell proliferation up to 2 mM after 48 hrs by MTT assay relative to control; format: functional
C6 [11] = assay: Cytotoxicity against rat C6 cells assessed as cell proliferation at 0.5 mM after 48 hrs by MTT assay relative to control; format: functional; settings: C6, 48 h, read-out: Activity
[12] = Cytotoxicity against rat CTX/TNA2 cells assessed as inhibition of cell proliferation at 2 mM after 24 hrs by MTT assay relative to control; format: cell-based
C6 [13] = assay: Cytotoxicity against rat C6 cells assessed as cell proliferation at 1.5 mM after 24 hrs by MTT assay relative to control; format: functional; settings: C6, 24 h, read-out: Activity

Row | SMILES | Ratio IC50 [1] | pIC50 (Nitric oxide synthase 3) | pIC50 [2] | also measured
1 | CC(=N)NCc1cccc(CNC(=O)[C@@H](N)CCCNC(=N)N)c1 | > 2220 | < 3.00 | 6.35 | 
2 | CC(=N)NCc1cccc(CNC(=O)[C@H](C)N)c1 | > 3600 | < 3.00 | 6.56 | 
3 | CSCC[C@H](N)C(=O)NCc1cccc(CNC(C)=N)c1 |  |  | < 5.00 | 
4 | CC(=N)NCc1cccc(CNC(=O)[C@@H](N)CCC(N)=O)c1 |  |  | < 5.00 | 
5 | CC(=N)NCc1cccc(CNC(=O)[C@@H](N)CCCCN)c1 | 473 | 3.68 | 6.35 | 
6 | CC[C@H](C)[C@H](N)C(=O)NCc1cccc(CNC(C)=N)c1 | > 5850 | < 3.00 | 6.77 | 
7 | CC(=N)NCc1cccc(CNC(=O)[C@@H](N)[C@@H](C)O)c1 |  |  | < 5.00 | 
8 | CC(=N)NCc1cccc(CNC(=O)[C@@H](N)Cc2c[nH]c3ccccc23)c1 |  |  | < 5.00 | 
9 | COC(=O)[C@@H](N)CCCNC(=N)N[N+](=O)[O-] |  |  |  | inhibition [3]: Active
10 | CC(=N)NCc1cccc(CN)c1 [1400W] |  |  |  | growth at 750 µM (C6 [4]): 64.6%; inhibition (C6 [5]): Dose-dependent effect; Activity [6]: Dose-dependent effect; inhibition at 24 h, 1500 µM [7]: ≤ 67.4%; growth at 1000 µM (C6 [8]): 83.2%; growth at 2000 µM (C6 [9]): 55.2%; Activity (C6 [10]): 35.66%; growth at 500 µM (C6 [11]): 68.9%; inhibition at 24 h, 2000 µM [12]: 69.2%; growth at 1500 µM (C6 [13]): 70.6%
11 | CC(=N)NCc1cccc(CNC(=O)[C@@H](N)CS)c1 |  |  | < 5.00 | 
